The target of test [1] is T1, rat brush border membrane vesicles (Rattus norvegicus, UniProt Q6T3U3).
T1 construct: from tissue; host or cells: rat (male Sprague-Dawley) small-intestinal mucosa, brush border membrane vesicles
In words: Binding assay with rat brush border membrane vesicles. The source says:
Glass fiber filters (GF/C) were obtained from Whatman.
Rate constants for binding and dissociation.
Analog structures are defined in Table 12.

Test [2] has as its target T2, rhesus brush border membrane vesicles (Macaca mulatta, UniProt A0MJA5).
T2 sequence (A0MJA5 1-1332): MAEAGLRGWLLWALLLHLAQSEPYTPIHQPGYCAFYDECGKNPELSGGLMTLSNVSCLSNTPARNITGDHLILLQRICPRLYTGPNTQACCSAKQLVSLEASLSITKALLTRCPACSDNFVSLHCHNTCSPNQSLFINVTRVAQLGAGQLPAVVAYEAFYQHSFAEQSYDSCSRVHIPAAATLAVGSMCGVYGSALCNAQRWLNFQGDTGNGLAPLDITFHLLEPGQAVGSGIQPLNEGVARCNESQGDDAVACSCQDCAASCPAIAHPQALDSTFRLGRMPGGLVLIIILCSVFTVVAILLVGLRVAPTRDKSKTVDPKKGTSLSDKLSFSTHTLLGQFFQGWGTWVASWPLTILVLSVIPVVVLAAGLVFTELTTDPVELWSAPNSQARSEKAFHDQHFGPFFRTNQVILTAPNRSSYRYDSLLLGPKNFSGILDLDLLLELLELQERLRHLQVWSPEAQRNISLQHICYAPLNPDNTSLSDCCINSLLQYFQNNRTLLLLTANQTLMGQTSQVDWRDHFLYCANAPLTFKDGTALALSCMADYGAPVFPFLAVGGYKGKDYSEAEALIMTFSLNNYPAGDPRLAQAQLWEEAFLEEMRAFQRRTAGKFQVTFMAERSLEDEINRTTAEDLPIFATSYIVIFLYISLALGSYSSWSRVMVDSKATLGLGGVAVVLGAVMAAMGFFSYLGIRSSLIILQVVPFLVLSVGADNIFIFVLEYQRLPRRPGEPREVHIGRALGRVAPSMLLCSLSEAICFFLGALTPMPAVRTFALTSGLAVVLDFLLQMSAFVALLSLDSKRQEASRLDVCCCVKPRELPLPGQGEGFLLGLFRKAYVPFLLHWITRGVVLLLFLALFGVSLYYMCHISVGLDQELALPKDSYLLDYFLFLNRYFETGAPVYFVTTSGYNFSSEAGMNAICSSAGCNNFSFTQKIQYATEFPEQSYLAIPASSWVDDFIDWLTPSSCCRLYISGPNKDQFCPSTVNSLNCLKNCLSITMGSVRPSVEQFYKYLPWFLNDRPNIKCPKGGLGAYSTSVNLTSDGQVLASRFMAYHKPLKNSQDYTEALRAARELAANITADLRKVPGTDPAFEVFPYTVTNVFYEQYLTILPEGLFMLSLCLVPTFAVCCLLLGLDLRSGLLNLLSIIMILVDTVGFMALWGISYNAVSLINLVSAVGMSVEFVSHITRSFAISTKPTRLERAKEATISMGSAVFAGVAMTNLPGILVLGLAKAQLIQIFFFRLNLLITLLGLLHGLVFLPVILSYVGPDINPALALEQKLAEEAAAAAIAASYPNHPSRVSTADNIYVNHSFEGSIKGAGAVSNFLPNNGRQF
In words: Binding assay with rhesus brush border membrane vesicles.
Method: The intestines from freshly sacrificed animals were cut into segments, perfused with ice-cold saline buffer (Buffer A: 26 mM NaHCO3, 0.96 mM NaH2PO4, 5 mM HEPES, 5.5 mM glucose, 117 mM NaCl, 5.4 mM KCl, pH=7.4), placed on cold glass plates, opened longitudinally, and the mucosa scraped with glass microscope slips. This mucosa could be used fresh or frozen with identical results. To prepare the membranes, the mucosal scrapings were resuspended in 20 volumes of cold buffer consisting of 300 mM D-mannitol, 5 mM EGTA, 12 mM Tris, pH 7.4 with HCl, and containing 0.1 mM PMSF and a 1% dilution of a protease inhibitor cocktail (set 1, Calbiochem). They were homogenized using a Polytron at medium speed on ice until inspection with a microscope indicated complete cell lysis. Then, solid MgCl2 was added slowly with stirring to a final concentration of 10 mM, and the solution was kept stirring on ice for 15 min. Cellular debris was removed by centrifugation for 15 min at 3,000 g, and the membranes were recovered by centrifugation for 60 min at 48,000 g. The membranes were further rinsed by re-suspension in a buffer containing 50 mM D-mannitol, 5 mM EGTA, and 2 mM Tris at pH 7.40, and centrifugation for 60 min at 48,000 g. The final pellet was resuspended in 120 mM NaCl and 20 mM Tris at pH 7.40 to a concentration of ˜10-20 mg protein/ml, aliquoted, frozen in liquid nitrogen, and stored at −80 C. The activity was stable indefinitely and could be freeze-thawed with minimal loss of activity.
Binding assay. Assays were conducted in 12×75 mm glass test tubes and total volume 20-100 ul. In general, frozen membranes were diluted in buffer A or buffer A containing 0.03% taurocholate and 0.05% digitonin to a final concentration of 0.02 to 5 mg/ml. […] Competing ligands were likewise added as DMSO solutions to give a total 2-10% organic solvent content. […] At least 2 components of buffer A, the bicarbonate and phosphate salts, were later found to be inconsequential and were routinely omitted.
Bound ligand was quantified by single-tube vacuum filtration using GF/C glass fiber filters. […] Filtration was accomplished by adding 2.5 ml of ice cold buffer (120 mM NaCl, 0.1% sodium cholate, and 20 mM MES at pH 6.70) to the assay tube, pouring the mixture through the filter, and then rinsing the tube and filter twice more with another 2×2.5 ml buffer. The filters were counted in 7 ml vials using Packard DM liquid scintillation fluid.
Data analysis. Data from saturation experiments were subjected to a Scatchard analysis, and linear regression was performed to yield the equilibrium dissociation constant (Kd) and maximum receptor concentration (Bmax). […] Data from competition experiments were analyzed and IC50 values determined from Hill plots of the binding data.

Setting [3] is: 0.03% sodium taurocholate and 0.05% digitonin, 1.25 mg protein/ml, 100 nM 1, read-out: Rat BBM Ki.
The mark [4] stands for this setting: rat brush border membrane vesicles, read-out: RAT IC50 (nM), inhibition of ^3H-EZE-gluc binding.
Where [5] appears, read: Monkey BBM Ki (nM), 0.03% sodium taurocholate and 0.05% digitonin, 1.25 mg protein/ml, 20 nM 1.
The mark [6] stands for this setting: 50 nM ^3H-EZE-glucuronide, 150 μg protein/assay, read-out: inhibition constant Ki, Rat.
[7] abbreviates: native rat intestinal brush border membranes, read-out: Rat BBMV Ki.

“And” between values parts separate entries of the source, which are not always exact repeats. Equal entries are not always repeated. Where two headings read alike, the source gives them in different places.

The text below walks through data of US7901893B2, “NPC1L1 (NPC3) and methods of identifying ligands thereof” (Merck Sharp & Dohme Corp., priority 2004, dated 2011).

Take `O=C(O)C1OC(Oc2ccc(C3C(CCC(O)c4ccc(F)cc4)C(=O)N3c3ccc(F)cc3)cc2)C(O)C(O)C1O` (single isomer, unassigned) [Compound 4]: the Ki in test [1] (setting [3]) was 130000 nM; in test [2] (setting [5]) it was 22000 nM. For the same molecule, in test [1] (in all species, Ki>100×KD for ezetimibe glucuronide), the activity in vitro entry is “completely inactive”. Besides, the IC50 in test [1] (setting [4]) is above 100000 nM. The Kd in test [1] (rat membrane binding assay, read-out: Kd for the rat target) is above 100000 nM.
With `O=C(O)[C@H]1O[C@@H](Oc2ccc([C@@H]3[C@@H](CC[C@H](O)c4ccc(F)cc4)C(=O)N3c3ccc(F)cc3)cc2)[C@H](O)[C@@H](O)[C@@H]1O` [Compound 1, Ezetimibe glucuronide], the “rate constant for association kon” value in test [1] (25 nM 1, rat membranes, 25° C.) is 5,540 M^−1 s^−1. Moreover, the kobs in test [1] (25 nM of 1 and 3 mg/ml protein at 25° C.) was found to be 0.004 s⁻¹. For the same molecule, the Ki was 530 nM in test [1] (setting [6]), 390 nM in test [1] (setting [3]), 600 nM in test [1] (setting [7]) and 15 nM in test [2] (setting [5]). The Kd in test [1] (1.5 mg/ml protein, 50 nM 1, 1 hour, read-out: KD at equilibrium by competition of unlabeled compound against 1) was 600 nM; in test [1] (^3H-ezetimibe glucuronide, rat membranes, no detergent, read-out: KD (equilibrium saturation binding, Scatchard)), 542 nM and 540 nM; in test [1] (rat membranes, read-out: Kd predicted from rate constants (Kd=koff/kon)), 440 nM; in test [2] (KD at equilibrium by competition of unlabeled compound against 1, 0.5-1.25 mg/ml protein, 22-50 nM 1, more than 3 hours), 38.6 nM; in test [2] (Kd (equilibrium saturation binding, Scatchard), ^3H-ezetimibe glucuronide, rhesus membranes, no detergent) it was 41 nM; in test [2] (Kd predicted from rate constants (Kd=koff/kon), rhesus membranes), 32 nM. The molecule also came in with a Bmax in test [1] (^3H-EZE-glucuronide, rat BBMV) of 20.7 pmol/mg protein. The 50% inhibitory concentration (IC50) in test [1] (setting [4]) was 530 nM; in test [1] (rat, read-out: in vitro binding affinity (IC50)) it was 542 nM; in test [2] it was 41 nM. Moreover, the “rate constant for dissociation koff” value came out at 0.0024 s⁻¹ in test [1] (rat membranes, dissociation initiated with 100 μM unlabeled ezetimibe glucuronide) and 0.00012 s⁻¹ in test [2] (rhesus membranes, listed as [^3H]ezetimibe glucuronide). In addition, the residence time was 4.7 min in test [1] (read-out: half-life of dissociation) and around 90 min in test [2] (read-out: half-life for dissociation of the complex, rhesus/monkey complex). In addition, the kon turned out to be 5500 M⁻¹ s⁻¹ in test [1] (read-out: rate constant for association kon, 25 nM 1, rat membranes, 25° C.); 5540 M⁻¹ s⁻¹ in test [1] (read-out: rate constant for association kon, rat brush border membranes); 3900 M⁻¹ s⁻¹ in test [2] (read-out: rate constant for association kon). For the same molecule, the off-rate constant (koff) stood at 0.0024 s⁻¹ in test [1] (read-out: rate constant for dissociation koff) and 0.000123 s⁻¹ in test [2] (read-out: rate constant for dissociation koff, rhesus membranes). Moreover, the “concentration of binding site” value in test [2] (rhesus membranes) is given as 5.5 pmol/mg membrane protein.
With `CS(=O)(=O)NCC#Cc1ccc(N2C(=O)[C@H](CC[C@H](O)c3ccc(F)cc3)[C@H]2c2ccc(O[C@@H]3O[C@H](C(=O)O)[C@@H](O)[C@H](O)[C@H]3O)cc2)cc1` [Compound 2, 4-[(2S,3R)-3-[(3S)-3 (4-fluorophenyl)-3-hydroxypropyl]-1-(4-{3-[(methylsulfonyl)amino]prop-1-yn-1-yl}phenyl)-4-oxoazetidin-2-yl]phenyl β-D-glucopyranosiduronic acid], the Ki in test [1] (setting [6]) and in test [1] (setting [7]) was 15 nM in each case. Besides, the “potency relative to ezetimibe glucuronide” value in test [1] (rat enterocyte brush border membrane preparations) is on record as 35 fold; in test [2] (rhesus membrane preparations), “equipotent”.
For `O=C(O)[C@H]1O[C@@H](Oc2ccc([C@@H]3[C@@H](CCCc4ccc(F)cc4)C(=O)N3c3ccc(F)cc3)cc2)[C@H](O)[C@@H](O)[C@@H]1O` [Compound 3], the inhibitory constant (Ki) in test [1] (setting [3]) was found to be 1600 nM; in test [1] (setting [7]), 2300 nM; in test [2], 150 nM. For the same molecule, the 50% inhibitory concentration (IC50) in test [1] (setting [4]) stood at 2300 nM.
As to `O=C(O)[C@H]1O[C@@H](Oc2ccc([C@@H]3[C@@H](CC[C@@H](O)c4ccc(F)cc4)C(=O)N3c3ccc(F)cc3)cc2)[C@H](O)[C@@H](O)[C@@H]1O` [Compound 5], the Ki was 2800 nM in test [1] (setting [3]), 3900 nM in test [1] (setting [7]) and 120 nM in test [2] (setting [5]). Besides, in test [1] (setting [4]), the half-inhibitory concentration (IC50) is 3900 nM.
Regarding `O=C(CC[C@H]1C(=O)N(c2ccc(F)cc2)[C@@H]1c1ccc(O[C@@H]2O[C@H](C(=O)O)[C@@H](O)[C@H](O)[C@H]2O)cc1)c1ccc(F)cc1` [Compound 6], the values for the Ki in test [1] (setting [3]), in test [1] (setting [7]) and in test [2] were 33000 nM, 70000 nM and 3300 nM, respectively. For the same molecule, the IC50 in test [1] (setting [4]) is 70000 nM.
With `O=C1[C@H](CC[C@H](O)c2ccc(F)cc2)[C@@H](c2ccc(O)cc2)N1c1ccc(F)cc1` [ezetimibe], the Kd in test [1] (Table 11, rat, absence of detergents, read-out: KD) stood at 542 nM; in test [2] (KD (nM), Table 11, monkey, absence of detergents) it was 41 nM.
